Measured values reported in ChEMBL document CHEMBL1148014, “Antileukotrienic N-arylethyl-2-arylacetamides in the treatment of ulcerative colitis” (Eur J Med Chem, 2007).
Activity calls are given as the source filed them. The rule behind the calls is not given here.

Assays:
[1] = octanol/water
Description: Lipophilicity, log K of the compound

physchem = conditions: octanol/water
Description: Partition coefficient, log P of the compound

Mus musculus [2] = organism: Mus musculus; assay: animal or person; conditions: po, read-out: Inhibition
Rattus norvegicus = organism: Rattus norvegicus; assay: animal or person; conditions: read-out: Inhibition
Mus musculus [3] = organism: Mus musculus; assay: animal or person; conditions: po, read-out: Inhibition; remark: listed apart in the source
Leukotriene B4 receptor = Leukotriene B4 receptor (Homo sapiens, UniProt Q9NPC1+Q15722)
Description: Displacement of [3H]LTB4 from LTB4 receptor in guinea pig spleen membrane

Mus musculus [4] = assay: Stimulation of hyperaemia in mouse at 200 mg/kg, po; assay type: functional
Mus musculus [5] = organism: Mus musculus; assay: Antiinflammatory activity against dextran sodium sulfate-induced ulcerative colitis in BALB/c mouse assessed as stool consistency; assay type: functional, organism-based
Mus musculus [6] = organism: Mus musculus; assay: Antiinflammatory activity against dextran sodium sulfate-induced ulcerative colitis in BALB/c mouse assessed as large intestinal bleeding; assay type: functional, organism-based

Row | SMILES | log K [1] | logP (physchem) | inhibition in vivo at 200 mg/kg (Mus musculus [2]) [%] | inhibition in vivo at 100 mg/kg (Rattus norvegicus) [%] | inhibition in vivo at 200 mg/kg (Mus musculus [3]) [%] | IC50 (Leukotriene B4 receptor) [nM] | Activity (Mus musculus [4]) [%] | Activity (Mus musculus [5]) | Activity (Mus musculus [6])
1 | O=C(O)Cc1ccc(OCCCCOc2ccc(CC(=O)NCCc3ccccc3)cc2)cc1 | 0.089 | 5.44 | 23 |  |  |  |  |  | 
2 | CC(c1cc2ccccc2s1)N(O)C(N)=O (stereo not given) [ZILEUTON] |  |  |  | 46 | 13 |  |  |  | 
3 | COc1cc(CC(=O)O)ccc1OCCCOc1ccc(CC(=O)N(C)CCc2ccccc2)cc1 | 0.013 | 4.73 | 14 |  |  | 67000 |  |  | 
4 | COc1cc(CC(=O)O)ccc1OCCCCOc1ccc(CC(=O)NCCc2ccccc2)cc1 | -0.079 | 5.01 | 23 |  |  |  | 7.7 |  | 
5 | CN(CCc1ccccc1)C(=O)Cc1ccc(OCCCOc2ccc(CC(=O)O)cc2)cc1 | 0.166 | 5.16 | 20 | 39 |  | 18000 |  |  | 
6 | COc1cc(CC(=O)O)ccc1OCCCCOc1ccc(CC(=O)N(C)CCc2ccccc2)cc1 | 0.12 | 5.22 | 21 | 0 |  | 8600 |  |  | 
7 | CN(CCc1ccccc1)C(=O)Cc1ccc(OCCCOc2ccc(CC(=O)O)cc2Cl)cc1 | 0.253 | 5.81 | 20 | 12 |  | 2400 |  |  | 
8 | COc1cc(CC(=O)O)ccc1OCCCCOc1ccc(CC(=O)N(C)CCc2ccc(Br)cc2)cc1 | 0.354 | 6.11 | 38 | 27 |  | 1900 |  | Active | Active
9 | COc1cc(CC(=O)O)ccc1OCCCOc1ccc(CC(=O)N(C)CCc2ccc(Br)cc2)cc1 | 0.193 | 5.62 | 38 | 3 |  |  |  |  | 
10 | CN(CCc1ccccc1)C(=O)Cc1ccc(OCCCCOc2ccc(CC(=O)O)cc2)cc1 | 0.287 | 5.65 | 45 | 30 |  | 4700 |  |  | 
11 | Cc1cccc(CCN(C)C(=O)Cc2ccc(OCCCCOc3ccc(CC(=O)O)cc3)cc2)c1 | 0.47 | 6.2 | 44 | 14 |  | 1100 |  |  | 
12 | Cc1ccc(CCN(C)C(=O)Cc2ccc(OCCCCOc3ccc(CC(=O)O)cc3)cc2)cc1 | 0.471 | 6.2 | 20 |  |  | 660 |  |  | 
13 | CN(CCc1ccccc1)C(=O)Cc1ccc(OCCCCOc2ccc(CC(=O)O)cc2Cl)cc1 | 0.364 | 6.3 | 23 | 32 |  | 1200 |  | inactive | inactive
